# From patent US12605397B2, “Deoxy-cytidine or uridine derivatives for use in cancer therapies” (HEMISPHERIAN AS, priority 2019, dated 2026)
# What was measured:
# HCT-116 cells = assay: Survival assay (MTT), HCT-116; format: cell-based, human; details: HCT-116, Colon Carcinoma, 72 hours, MTT
# Experimental: (§1) Cells were incubated with the drugs for 72 hours.
# A549 cells = assay: Survival assay (MTT), A549; format: cell-based, human; details: A549, Lung Carcinoma, 72 hours, MTT
# Experimental: (§2) Cells were passed between 70 and 90% confluence.
# as §1
# 22Rv1 cells = assay: Survival assay (MTT), 22Rv1; format: cell-based, human; details: 22Rv1, Prostate Carcinoma, 72 hours, MTT
# Experimental: as §2, §1
# NCI-N87 cells = assay: Survival assay (MTT), NCI-N87; format: cell-based, human; details: NCI-N87, Gastric Carcinoma, 72 hours, MTT
# Experimental: as §2, §1
# MIA PaCa-2 cells = assay: Survival assay (MTT), MIA PaCa-2; format: cell-based, human; details: MIA PaCa-, Pancreatic Carcinoma, 72 hours, MTT
# Experimental: as §2, §1
# A-498 cells = assay: Survival assay (MTT), A-498; format: cell-based, human; details: A-498, Kidney Carcinoma, 72 hours, MTT
# Experimental: as §2, §1
# U937 cells = assay: Survival assay (MTT), U937; format: cell-based, human; details: U937, Lymophoma, 72 hours, MTT
# Experimental: as §2, §1
# A375 cells = assay: Survival assay (MTT), A375; format: cell-based, human; details: A375, Malignant Melanoma, 72 hours, MTT
# Experimental: as §2, §1
# HL-60 cells = assay: Survival assay (MTT), HL-60; format: cell-based, human; details: HL-60, Acute Promyelocytic Leukemia, 72 hours, MTT
# Experimental: as §2, §1
# SK-OV-3 cells = assay: Survival assay (MTT), SK-OV-3; format: cell-based, human; details: SK-OV-3, Ovarian Adenocarcinoma, 72 hours, MTT
# Experimental: as §2, §1
# MCF-7 cells = assay: Survival assay (MTT), MCF-7; format: cell-based, human; details: MCF-7, Epithelial Adenocarcinoma (Breast), 72 hours, MTT
# Experimental: as §2, §1
# U2OS cells = assay: Survival assay (MTT), U2OS; format: cell-based, human; details: Bone Osteoscarcoma, 72 hours, MTT
# Experimental: as §2, §1
# human cancer cell lines = assay: Survival assay, range of human cancer cell lines; format: cell-based; details: cell lines of Table 1
# Experimental: as §1
# With the knowledge that 5-formyl-2′-deoxycytidine is cytotoxic to cervical carcinoma (HeLa) cells, the study was expanded in two directions: (i) a further compound was assessed: 5-carboxyl-2′-deoxycytidine; and (ii) their cytotoxic effects against a wide range of human cancer cell lines was assessed (Table 1).
# HeLa cells = assay: Survival assay (MTT), HeLa; details: for IC50: HeLa
# Experimental: (§5) Cell lines not mentioned above were grown in DMEM (Sigma, Cat.Nr. D6429) supplemented with 10% Fetal Bovine Serum and 100 U/ml penicillin 100 U/ml streptomycin. All cells were maintained in a 5% CO2, humidified, water-jacketed incubator at 37° C. Cells were passed between 70 and 90% confluence.
# (§6) In a 96-well plate, 4000 cells in 100 μl of corresponding medium were seeded. The following day, drugs, diluted in DMSO, were added in 8 concentrations in triplicate. Drugs were added as a 4-fold dilution series starting from 100 μM. Cells were incubated with the drugs for 72 hours. Cell proliferation was assessed by MTT assay according to the manufacturer's protocol (ATCC, Cat. Nr. 30-1010K). Cell survival was normalized to the survival of cells treated with DMSO only. Experiment was performed three times, data represent mean of nine wells±SEM.
# HeLa cells, grown as described above (Materials and Methods), were treated with 5-hydroxymethyl-2′-deoxycytidine and 5-formyl-2′-deoxycytidine. After three days of treatment with these compounds, cell survival was assessed as described above (Materials and Methods).
# After three days of treatment with these compounds at a concentration of 100, 25, 6.25, 1.56, 0.39, 0.1, 0.02, or 0.006 μM, cell survival was assessed by MTT assay as described above (Materials and Methods).
# U87-MG cells = assay: Survival assay (MTT), U87-MG; details: MTT; for IC50: U87-MG, Glioma, Grade IV; for cytotoxicity to U87-MG cells (cell survival): up to 100 μM
# Experimental: as §5, §6
# In a 96-well plate, 4000 cells in 100 μl of corresponding medium were seeded. The following day, drugs, diluted in DMSO, were added in triplicate at a concentration of 100, 25, 6.25, 1.56, 0.39, 0.1, 0.02, or 0.006 ┘M. Cells were incubated with the drugs for 72 hours. Cell proliferation was assessed by MTT assay according to the manufacturer's protocol (ATCC, Cat. Nr. 30-1010K). Cell survival was normalized to the survival of cells treated with DMSO only. Experiment was performed three times, data represent mean of nine wells±SEM.
# G7 cells = assay: Survival assay (MTT), G7; format: cell-based, human; details: G7, Glioma, Grade IV, 72 hours
# Experimental: (§3) Primary glioma neural stem (GNS) cells (G7, G14, G144, G166) were cultured on poly-D-lysine (Merck Millipore, Cat. Nr. A-003-E) and laminin (R&D Systems, Cat.Nr. 3446-005-01) coated plates in neural stem cell medium (50% DMEM-F12 (Thermofisher, Cat. Nr. 21041025), 50% neurobasal medium (Thermofisher, Cat. Nr. 10888-022), N2 (Life Technologies, Cat. Nr. A-003-E) and B27 supplements (Life Technologies, Cat.Nr. 12587010), 1 mM sodium pyruvate (Life Technologies, Cat.Nr. 11360-039), 2 mM glutamax (Life Technologies, Cat. Nr. 35050038), 1 mM HEPES (Fisher Scientific, Cat. Nr. BP299-1), 0.1 mM β-mercaptoethanol (Life Technologies, Cat. Nr. 31350010), 1× nonessential amino acids (Life Technologies, Cat. Nr. 11140-035), 0.006% bovine serum albumin (Sigma, Cat. Nr. A8577-10ML), 4 μg/ml heparin (Sigma, Cat. Nr. H3149-25KU), 100 U/ml penicillin, 100 μg/ml streptomycin, 20 ng/ml hEGF (R&D Systems, Cat. Nr. 236-EG-200), 10 ng/ml bFGF (Peprotech, Cat. Nr. 100-18B).
# as §1
# G14 cells = assay: Survival assay (MTT), G14; format: cell-based, human; details: G14, Glioma, Grade IV, 72 hours
# Experimental: as §3, §1
# G26 cells = assay: Survival assay (MTT), G26; format: cell-based, human; details: G26, Glioma, Grade IV, 72 hours
# Experimental: as §2, §1
# G30 cells = assay: Survival assay (MTT), G30; format: cell-based, human; details: G30, Glioma, Grade IV, 72 hours
# Experimental: as §2, §1
# G144 cells = assay: Survival assay (MTT), G144; format: cell-based, human; details: G144, Glioma, Grade IV, 72 hours
# Experimental: as §3, §1
# G166 cells = assay: Survival assay (MTT), G166; format: cell-based, human; details: G166, Glioma, Grade IV, 72 hours
# Experimental: as §3, §1
# SF188 cells = assay: Survival assay (MTT), SF188; format: cell-based, human; details: SF188, Glioma, Grade IV, 72 hours
# Experimental: as §2, §1
# U3017 cells = assay: Survival assay (MTT), U3017; format: cell-based, human; details: U3017, Glioma, Grade IV, 72 hours
# Experimental: as §2, §1
# DIPG007 cells = assay: Survival assay (MTT), DIPG007; format: cell-based, human; details: DIPG007, Glioma, Grade IV, 72 hours
# Experimental: as §2, §1
# U3013 cells = assay: Survival assay (MTT), U3013; format: cell-based, human; details: U3013, Glioma, Grade IV, 72 hours
# Experimental: as §2, §1
# CB152 cells = assay: Survival assay (MTT), CB152; format: cell-based, human; details: CB152, Glioma, Grade IV, 72 hours
# Experimental: as §2, §1
# Arpe19 cells = assay: Survival assay (MTT), Arpe19; format: cell-based, human; details: Arpe19, Normal, Ectoderm; 72 hours, MTT
# Experimental: as §1
# (§4) The present inventors further investigated the extent to which these compounds kill normal human cells; low cytotoxicity against normal human cells is advantageous property for anti-cancer agents. The cytotoxicity of these compounds in various normal human cell lines was therefore investigated (Table 3). Cells were grown and the survival assay was performed as described above (Materials and Methods).
# HaCat cells = assay: Survival assay (MTT), HaCat; format: cell-based, human; details: Normal, Keratinocytes, 72 hours
# Experimental: as §2, §1, §4
# MRC5 cells = assay: Survival assay (MTT), MRC5; format: cell-based, human; details: MRC5, Normal, Lung; 72 hours, MTT
# Experimental: as §2, §1, §4
# Buffy A cells = assay: Survival assay (MTT), Buffy A; format: cell-based, human; details: Normal, Bone Marrow, 72 hours
# Experimental: as §2, §1, §4
# Buffy C cells = assay: Survival assay (MTT), Buffy C; format: cell-based, human; details: Normal, Bone Marrow, 72 hours
# Experimental: as §2, §1, §4
# Buffy M cells = assay: Survival assay (MTT), Buffy M; format: cell-based, human; details: Normal, Bone Marrow, 72 hours
# Experimental: as §2, §1, §4
# [1] = tested on: Glioma, Grade IV cell lines; assay: Survival assay, panel of 12 patient derived Glioma, Grade IV cell lines; format: cell-based, human; details: of 12 cell lines of Table 2
# Experimental: as §3, §2, §1
# Due to lack of activity in previous assays, 5-carboxyl-2′-deoxycytidine was not included in this more rigorous analysis.
# glioblastoma multiforme = details: Phase II trials (NCI 06-C-0064E); cited from earlier work
compound,measurement,setting,value
"Nc1nc(=O)n([C@H]2C[C@H](O)[C@@H](CO)O2)cc1C(=O)O [2d5caC, 5-carboxy-2′-deoxycytidine, reference compound]",IC50,"HCT-116 cells; Homo sapiens, HCT-116, 72 h",> 25 µM
same,IC50,"A549 cells; Homo sapiens, A549, 72 h",> 25 µM
same,IC50,"22Rv1 cells; Homo sapiens, 22Rv1, 72 h",> 25 µM
same,IC50,NCI-N87 cells; Homo sapiens,> 25 µM
same,IC50,"MIA PaCa-2 cells; Homo sapiens, MIA PaCa-2",> 25 µM
same,IC50,"A-498 cells; Homo sapiens, A498, 72 h",> 25 µM
same,IC50,"U937 cells; Homo sapiens, U-937",> 25 µM
same,IC50,"A375 cells; Homo sapiens, A-375",> 25 µM
same,IC50,HL-60 cells; Homo sapiens,> 25 µM
same,IC50,SK-OV-3 cells; Homo sapiens,> 25 µM
same,IC50,"MCF-7 cells; Homo sapiens, MCF7",> 25 µM
same,IC50,U2OS cells; Homo sapiens,> 25 µM
same,cytotoxicity in the cancer cell lines evaluated,human cancer cell lines,no cytotoxic properties
same,IC50,"HeLa cells; Homo sapiens, 72 h",> 25 µM
same,IC50,"U87-MG cells; Homo sapiens, U-87 MG, 72 h",> 25 µM
CC(=O)OCc1cn([C@H]2C[C@H](O)[C@@H](CO)O2)c(=O)[nH]c1=O [5-acetoxymethyl-2′-deoxyuridine],cytotoxicity to U87-MG cells (cell survival),U87-MG cells; 72 hours,unable to survive
"Nc1nc(=O)n([C@H]2C[C@H](O)[C@@H](CO)O2)cc1Br [5-bromo-2′-deoxycytidine, reference compound]",IC50,"U87-MG cells; Homo sapiens, U-87 MG, 72 h",> 25 µM
"Nc1nc(=O)n([C@H]2C[C@H](O)[C@@H](CO)O2)cc1Cl [5-chloro-2′-deoxycytidine, reference compound]",IC50,"U87-MG cells; Homo sapiens, U-87 MG, 72 h",> 25 µM
Nc1nc(=O)n([C@H]2C[C@H](O)[C@@H](COP(=O)(O)OP(=O)(O)OP(=O)(O)O)O2)cc1C=O [5-formyl-2′-deoxycytidine-5′-triphosphate],cytotoxicity to HeLa cells (cell survival),"HeLa cells; three days of treatment, MTT, up to 100 μM",unable to survive
same,cytotoxicity to U87-MG cells (cell survival),U87-MG cells; 72 hours,cytotoxic
Nc1nc(=O)n([C@H]2C[C@H](O)[C@@H](COP(=O)(O)OP(=O)(O)OP(=O)(O)O)O2)cc1CO [5-hydroxymethyl-2′-deoxycytidine-5′-triphosphate],cytotoxicity to U87-MG cells (cell survival),U87-MG cells; 72 hours,cytotoxic
"Nc1nc(=O)n([C@H]2C[C@H](O)[C@@H](CO)O2)cc1I [5-iodo-2′-deoxycytidine, reference compound]",IC50,"U87-MG cells; Homo sapiens, U-87 MG, 72 h",> 25 µM
COCc1cn([C@H]2C[C@H](O)[C@@H](CO)O2)c(=O)[nH]c1=O [5-methoxymethyl-2′-deoxyuridine],cytotoxicity to U87-MG cells (cell survival),U87-MG cells; 72 hours,unable to survive
"O=c1[nH]cc(F)c(=O)[nH]1 [5fU, 5-flurouracil, reference compound]",IC50,HCT-116 cells,3.54 µM
same,IC50,A549 cells,1.85 µM
same,IC50,22Rv1 cells,> 25 µM
same,IC50,NCI-N87 cells,1.52 µM
same,IC50,MIA PaCa-2 cells,8.1 µM
same,IC50,A-498 cells,2.37 µM
same,IC50,U937 cells,7.45 µM
same,IC50,A375 cells,7.87 µM
same,IC50,HL-60 cells,> 25 µM
same,IC50,SK-OV-3 cells,3.76 µM
same,IC50,MCF-7 cells,> 25 µM
same,IC50,U2OS cells,2.89 µM
same,IC50,G7 cells,6.46 µM
same,IC50,G14 cells,11.6 µM
same,IC50,G26 cells,7.12 µM
same,IC50,G30 cells,23.3 µM
same,IC50,G144 cells,6.8 µM
same,IC50,G166 cells,4.81 µM
same,IC50,SF188 cells,3.88 µM
same,IC50,U3017 cells,3.92 µM
same,IC50,DIPG007 cells,4.3 µM
same,IC50,U3013 cells,4.14 µM
same,IC50,CB152 cells,6.5 µM
same,IC50,Arpe19 cells,> 25 µM
same,IC50,HaCat cells,0.523 µM
same,IC50,MRC5 cells,> 25 µM
same,IC50,Buffy A cells,> 25 µM
same,IC50,Buffy C cells,> 25 µM
same,IC50,Buffy M cells,> 25 µM
same,"number of Glioma, Grade IV cell lines killed",[1],11 of 12
same,IC50,"HeLa cells; Cervical Adenocarcinoma, 72 hours, MTT",> 25 µM
same,IC50,U87-MG cells; 72 hours,> 25 µM
"Avastin (RTM): bevacizumab, an angiogenesis inhibitor with multiple oncology indications",overall survival benefit,glioblastoma multiforme,did not yield an overall survival benefit
